# Source: the supplement of paper PMC4862054
# Legend:
# Conditions in all cases: incubation time: 72 h
# CAL-148 [1] = assay: normalised viability (% of control), CellTiter-Blue; higher = more viable cells (about 100 = DMSO control)
# Description: (§1)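 DSRT, CellTiter-Blue viability, 72 h incubation. Signal is normalised to DMSO and benzethonium chloride controls. Value is the normalised response at dose 3.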
# CAL-51 [2] = assay: as above
# Description: as §1
# HCC1143 [3] = assay: as above
# Description: as §1
# HCC1937 [4] = assay: as above
# Description: as §1
# HDQ-P1 [5] = assay: as above
# Description: as §1
# BT-474 = assay: drug sensitivity score (DSS), CellTiter-Glo (DSS (AUC-based score)); higher = stronger drug effect (viability inhibition or cytotoxicity); extreme values may be limits of the assay
# In short: (§2)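 Plates with 384 wells held compound at 5 concentrations in 10-fold steps over a 10,000-fold range specific to each compound. Breast cancer cell lines were added in 20 µl suspension and incubated 72 h, then read for CellTox Green and CellTiter-Glo signals, with each plate normalised to 0.1 % DMSO and a positive kill control. The drug sensitivity score is based on the area under the fitted dose-response curve.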
# BT-549 = assay: as above
# In short: as §2
# CAL-120 [6] = assay: as above
# In short: as §2
# CAL-148 [7] = assay: as above
# In short: as §2
# CAL-51 [8] = assay: as above
# In short: as §2
# CAL-85-1 = assay: as above
# In short: as §2
# DU-4475 = assay: as above
# In short: as §2
# HCC1143 [9] = assay: as above
# In short: as §2
# HCC1599 = assay: as above
# In short: as §2
# HCC1937 [10] = assay: as above
# In short: as §2
# HDQ-P1 [11] = assay: as above
# In short: as §2
# Hs578T = assay: as above
# In short: as §2
# MCF-10A = assay: as above
# In short: as §2
# MDA-MB-231 = assay: as above
# In short: as §2
# MDA-MB-436 = assay: as above
# In short: as §2
# MDA-MB-453 = assay: as above
# In short: as §2
# MDA-MB-468 = assay: as above
# In short: as §2
# MFM-223 = assay: as above
# In short: as §2
# SK-BR-3 = assay: as above
# In short: as §2
# CAL-120 [12] = assay: drug sensitivity score (DSS), CellTox Green (DSS (AUC-based score)); higher = stronger drug effect (viability inhibition or cytotoxicity); extreme values may be limits of the assay
# In short: as §2
# CAL-148 [13] = assay: as above
# In short: as §2
Compound,normalised viability (CAL-148 [1]; 10 nM),normalised viability (CAL-51 [2]; 10 nM),normalised viability (HCC1143 [3]; 100 nM),normalised viability (HCC1937 [4]; 100 nM),normalised viability (HDQ-P1 [5]; 10 nM),drug sensitivity score (BT-474),drug sensitivity score (BT-549),drug sensitivity score (CAL-120 [6]),drug sensitivity score (CAL-148 [7]),drug sensitivity score (CAL-51 [8]),drug sensitivity score (CAL-85-1),drug sensitivity score (DU-4475),drug sensitivity score (HCC1143 [9]),drug sensitivity score (HCC1599),drug sensitivity score (HCC1937 [10]),drug sensitivity score (HDQ-P1 [11]),drug sensitivity score (Hs578T),drug sensitivity score (MCF-10A),drug sensitivity score (MDA-MB-231),drug sensitivity score (MDA-MB-436),drug sensitivity score (MDA-MB-453),drug sensitivity score (MDA-MB-468),drug sensitivity score (MFM-223),drug sensitivity score (SK-BR-3),drug sensitivity score (CAL-120 [12]),drug sensitivity score (CAL-148 [13]),normalised viability (CAL-148 [1]; 1 nM),normalised viability (CAL-51 [2]; 1 nM),normalised viability (HCC1143 [3]; 10 nM),normalised viability (HCC1937 [4]; 10 nM),normalised viability (HDQ-P1 [5]; 1 nM)
COc1cc(OC2CCN(C)CC2)ccc1Nc1ncc2c(n1)n(C1CCCC1)c(=O)n2C [AZ 3146],105%,92.3%,133%,81.8%,79.1%,2.51,0,0.593,0,5.98,2.31,0,0,1.58,0,0,0,2.22,0,0,0,2.06,0,4.5,0,0,–,–,–,–,–
O=C(/C=C/c1cccc(S(=O)(=O)Nc2ccccc2)c1)NO [Belinostat],91%,105%,96.6%,92.4%,121%,14.9,9.61,13.1,16.1,18.6,12.6,15.9,11.6,12.1,7.92,8.05,11,10.8,14,10.5,20.4,14.7,13.9,18.3,9.87,8.43,–,–,–,–,–
Oc1ccc2c(c1)CC[C@H](c1ccccc1)[C@@H]2c1ccc(OCCN2CCCC2)cc1 [Lasofoxifene],–,–,–,–,–,0,0,0,0,0,0,0,0,0,0,0,0,0,0,0,0,0,0,0,0,0,101%,95.1%,90.7%,87.2%,107%
CN(C)c1nc(N(C)C)nc(N(C)C)n1 [Altretamine],102%,103%,91.7%,91.8%,105%,0,0,0,0,0,0,0,0,0,0,0,0,0,0,0,0,0,0,0,0,0,–,–,–,–,–
